These are literature values, as cited in US20220175718A1, “TRANSDERMAL PHARMACEUTICAL FORMULATIONS FOR THE TREATMENT OF CANCER” (PIKE THERAPEUTICS, INC., priority 2020, published 2022).

pKi: −log10 of the molar value.

The target of one data set is CB1 (Homo sapiens, UniProt P21554).
For a further data set, the target named is CB2 (Homo sapiens, UniProt P34972). The settings on record: for selectivity for CB2 over CB1: given as ×, fold or times.
CB2, sequence (P34972 whole entry, species assumed): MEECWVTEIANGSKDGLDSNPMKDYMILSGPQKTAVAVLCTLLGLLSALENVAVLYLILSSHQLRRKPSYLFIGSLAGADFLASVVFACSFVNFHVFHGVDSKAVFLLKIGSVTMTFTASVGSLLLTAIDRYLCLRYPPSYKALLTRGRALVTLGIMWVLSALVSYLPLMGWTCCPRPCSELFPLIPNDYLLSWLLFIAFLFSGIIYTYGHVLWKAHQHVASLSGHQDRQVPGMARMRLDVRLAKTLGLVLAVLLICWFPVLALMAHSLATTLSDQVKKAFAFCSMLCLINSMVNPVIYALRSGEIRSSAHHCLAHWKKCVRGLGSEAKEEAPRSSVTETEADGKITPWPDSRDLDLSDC

CB1, sequence (P21554 whole entry, species assumed): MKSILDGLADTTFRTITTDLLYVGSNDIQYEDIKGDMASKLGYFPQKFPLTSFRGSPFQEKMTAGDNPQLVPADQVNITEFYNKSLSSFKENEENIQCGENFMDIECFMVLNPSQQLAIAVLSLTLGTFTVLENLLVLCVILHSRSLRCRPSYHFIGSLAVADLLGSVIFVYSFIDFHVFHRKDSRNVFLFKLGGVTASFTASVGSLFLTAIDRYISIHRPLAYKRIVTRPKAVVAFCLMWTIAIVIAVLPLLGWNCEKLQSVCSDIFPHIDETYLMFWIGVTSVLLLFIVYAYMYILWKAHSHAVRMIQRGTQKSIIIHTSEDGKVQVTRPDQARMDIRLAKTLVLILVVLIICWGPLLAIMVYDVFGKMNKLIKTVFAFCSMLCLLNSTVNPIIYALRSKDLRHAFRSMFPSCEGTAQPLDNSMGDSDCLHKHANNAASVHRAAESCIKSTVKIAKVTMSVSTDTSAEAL

The pKi is the negative decadic logarithm of the Ki, by convention in mol/L. As for `CCCCCn1cc(C(=O)c2ccc(Cl)c3ccccc23)c2ccccc21` [JWH-398], the pKi on CB1 is 8.64; on CB2 it was 8.55.

As to `CCCn1cc(C(=O)c2ccc(C)c3ccccc23)c2ccccc21` [JWH-120], the “selectivity for CB2 over CB1” value on CB2 is listed as 173.

`CCCCCCC(C)(C)c1cc(OC)c2c(c1)OC(C)(C)C1CCC(O)CC21` (stereo not drawn) [JWH-350, 11-nor-1-methoxy-3-(1′,1′-dimethylheptyl)-9α-hydroxyhexahydrocannabinol]: at CB2, the “selectivity for CB2 over CB1” value is given as 33.

In the case of `CCCCCCC(C)(C)c1cc(O)c2c(c1)oc(=O)c1ccc(OC)cc12` [AM-1710], at CB2, the “selectivity for CB2 over CB1” value is listed as 54.

Regarding `CCCn1c(C)c(C(=O)c2ccc(C)c3ccccc23)c2ccccc21` [JWH-148], the “selectivity for CB2 over CB1” value at CB2 is on record as “more than 8”.

With `CCCCCn1cc(C(=O)c2cccc3cccc(Br)c23)c2ccccc21` [JWH-424], the negative logarithm of the Ki (pKi) is 7.68 on CB1 and 8.26 on CB2.
